Measured values taken from US20250230193A1, “CYCLIC COMPOUND HAVING SELECTIVE KRAS INHIBITORY EFFECT ON HRAS AND NRAS” (CHUGAI SEIYAKU KABUSHIKI KAISHA, priority 2022, published 2025).

Tests used:
[1] = target: GDP-bound NRAS wild-type protein (Homo sapiens, UniProt P01111); experiment: Binding to NRAS by surface plasmon resonance (SPR), Single Cycle Kinetics; conditions: KD ratio, GDP-bound NRAS wild-type vs GDP-bound KRAS wild-type, SPR
[2] = target: GDP-bound HRAS wild-type protein (Homo sapiens, UniProt P01112); experiment: Binding to HRAS by surface plasmon resonance (SPR), Single Cycle Kinetics; conditions: KD ratio, GDP-bound HRAS wild-type vs GDP-bound KRAS wild-type, SPR
GDP-bound HRAS wild-type protein, sequence (P01112 whole entry): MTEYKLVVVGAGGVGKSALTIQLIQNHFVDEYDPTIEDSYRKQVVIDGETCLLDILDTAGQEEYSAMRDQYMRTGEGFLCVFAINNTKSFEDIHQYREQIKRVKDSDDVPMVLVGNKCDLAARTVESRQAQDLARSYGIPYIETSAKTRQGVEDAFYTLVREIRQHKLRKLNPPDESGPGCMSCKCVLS

GDP-bound NRAS wild-type protein, sequence (P01111 whole entry): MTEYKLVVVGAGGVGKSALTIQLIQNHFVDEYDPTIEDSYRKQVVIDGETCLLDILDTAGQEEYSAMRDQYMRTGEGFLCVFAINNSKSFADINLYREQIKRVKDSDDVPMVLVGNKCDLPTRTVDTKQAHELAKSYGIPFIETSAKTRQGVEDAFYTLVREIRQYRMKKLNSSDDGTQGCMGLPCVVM

Structure (SMILES) | NRAS/KRAS (ratio of KD value for NRAS to KD value for KRAS) [1] | HRAS/KRAS (ratio of KD value for HRAS to KD value for KRAS) [2]
CCO[C@@H]1C[C@H]2C(=O)N(C)C3(CCC3)C(=O)N(C)[C@@H](C3CCCC3)C(=O)N(C)[C@H](C(=O)N(C)C)CC(=O)N(C)[C@@H](CC)C(=O)N[C@@H]([C@@H](C)CC)C(=O)N3CCC[C@H]3C(=O)N(C)[C@H]3C/C=C\CCN(C3=O)[C@@H](Cc3ccc(C)cc3)C(=O)N(C)CC(=O)N[C@@H](CCc3cc(F)c(C(F)(F)F)c(F)c3)C(=O)N2C1 [PP1785] | A (a compound having 10 or more and less than 20 is denoted as A) | A (a compound having 10 or more and less than 20 is denoted as A)
CC[C@H](C)[C@@H]1NC(=O)[C@H](CC)N(C)C(=O)C[C@@H](C(=O)N(C)C)N(C)C(=O)[C@H](C2CCCC2)N(C)C(=O)C2(CCC2)N(C)C(=O)[C@@H]2CCCN2C(=O)[C@H](CCc2cc(F)c(C(F)(F)F)c(F)c2)NC(=O)CN(C)C(=O)[C@H](Cc2ccc(C)cc2)N2CC/C=C\C[C@@H](C2=O)N(C)C(=O)[C@@H]2CCCN2C1=O [PP1786] | A (a compound having 10 or more and less than 20 is denoted as A) | B (a compound having 3 or more and less than 10 is denoted as B)
CC[C@H](C)[C@@H]1NC(=O)[C@H](CC)N(C)C(=O)C[C@@H](C(=O)N(C)C)N(C)C(=O)[C@H](C2CCCC2)N(C)C(=O)C2(CCC2)N(C)C(=O)[C@@H]2C[C@@H](C)CN2C(=O)[C@H](CCc2cc(F)c(C(F)(F)F)c(F)c2)NC(=O)CN(C)C(=O)[C@H](Cc2ccc(C)cc2)N2CC/C=C\C[C@@H](C2=O)N(C)C(=O)CN(C)C1=O [PP1787] | A (a compound having 10 or more and less than 20 is denoted as A) | B (a compound having 3 or more and less than 10 is denoted as B)
CC[C@H](C)[C@@H]1NC(=O)[C@H](C2CC2)N(C)C(=O)C[C@@H](C(=O)N(C)C)N(C)C(=O)[C@H](C2CCCC2)N(C)C(=O)C2(CCC2)N(C)C(=O)[C@@H]2C[C@@H](C)CN2C(=O)[C@H](CCc2cc(F)c(C(F)(F)F)c(F)c2)NC(=O)CN(C)C(=O)[C@H](Cc2ccc(C)cc2)N2CC/C=C\C[C@@H](C2=O)N(C)C(=O)CN(C)C1=O [PP1788] | B (a compound having 3 or more and less than 10 is denoted as B) | B (a compound having 3 or more and less than 10 is denoted as B)
CC[C@H](C)[C@@H]1NC(=O)[C@H](CC)N(C)C(=O)C[C@@H](C(=O)N(C)C)N(C)C(=O)[C@H](C2CCCC2)N(C)C(=O)C2(CCC2)N(C)C(=O)[C@@H]2C[C@@H](C)CN2C(=O)[C@H](CCc2cc(F)c(C(F)(F)F)c(F)c2)NC(=O)CN(C)C(=O)[C@H](Cc2ccc(C)cc2)N2CC/C=C\C[C@@H](C2=O)N(C)C(=O)[C@@H]2CCCN2C1=O [PP1789] | A (a compound having 10 or more and less than 20 is denoted as A) | A (a compound having 10 or more and less than 20 is denoted as A)
CCO[C@@H]1C[C@H]2C(=O)N(C)C3(CCC3)C(=O)N(C)[C@@H](C3CCCC3)C(=O)N(C)[C@H](C(=O)N(C)C)CC(=O)N(C)[C@@H](CC(C)C)C(=O)N[C@@H]([C@@H](C)CC)C(=O)N(C)CC(=O)N(C)[C@H]3C/C=C\CCN(C3=O)[C@@H](Cc3ccc(C)cc3)C(=O)N(C)CC(=O)N[C@@H](CCc3cc(F)c(C(F)(F)F)c(F)c3)C(=O)N2C1 [PP1790] | A (a compound having 10 or more and less than 20 is denoted as A) | B (a compound having 3 or more and less than 10 is denoted as B)
CC[C@H](C)[C@@H]1NC(=O)[C@H](CC(C)C)N(C)C(=O)C[C@@H](C(=O)N(C)C)N(C)C(=O)[C@H](C2CCCC2)N(C)C(=O)C2(CCC2)N(C)C(=O)[C@@H]2CCCN2C(=O)[C@H](CCc2cc(F)c(C(F)(F)F)c(F)c2)NC(=O)CN(C)C(=O)[C@H](Cc2ccc(C)cc2)N2CC/C=C\C[C@@H](C2=O)N(C)C(=O)CN(C)C1=O [PP1791] | A (a compound having 10 or more and less than 20 is denoted as A) | A (a compound having 10 or more and less than 20 is denoted as A)
CCC[C@H]1C(=O)N[C@@H]([C@@H](C)CC)C(=O)N(C)CC(=O)N(C)[C@H]2C/C=C\CCN(C2=O)[C@@H](Cc2ccc(C)cc2)C(=O)N(C)CC(=O)N[C@@H](CCc2cc(F)c(C(F)(F)F)c(F)c2)C(=O)N2C[C@H](OCC)C[C@H]2C(=O)N(C)C2(CCC2)C(=O)N(C)[C@@H](C2CCCC2)C(=O)N(C)[C@H](C(=O)N(C)C)CC(=O)N1C [PP1793] | A (a compound having 10 or more and less than 20 is denoted as A) | B (a compound having 3 or more and less than 10 is denoted as B)
CCC[C@H]1C(=O)N[C@@H]([C@@H](C)CC)C(=O)N(C)CC(=O)N(C)[C@H]2C/C=C\CCN(C2=O)[C@@H](Cc2ccc(C)cc2)C(=O)N(C)CC(=O)N[C@@H](CCc2cc(F)c(C(F)(F)F)c(F)c2)C(=O)N2CCC[C@H]2C(=O)N(C)C2(CCC2)C(=O)N(C)[C@@H](C2CCCC2)C(=O)N(C)[C@H](C(=O)N(C)C)CC(=O)N1C [PP1794] | A (a compound having 10 or more and less than 20 is denoted as A) | B (a compound having 3 or more and less than 10 is denoted as B)
CCO[C@@H]1C[C@H]2C(=O)N(C)C3(CCC3)C(=O)N(C)[C@@H](C3CCCC3)C(=O)N(C)[C@H](C(=O)N(C)C)CC(=O)N(C)[C@@H](CC3CC3)C(=O)N[C@@H]([C@@H](C)CC)C(=O)N(C)CC(=O)N(C)[C@H]3C/C=C\CCN(C3=O)[C@@H](Cc3ccc(C)cc3)C(=O)N(C)CC(=O)N[C@@H](CCc3cc(F)c(C(F)(F)F)c(F)c3)C(=O)N2C1 [PP1795] | A (a compound having 10 or more and less than 20 is denoted as A) | B (a compound having 3 or more and less than 10 is denoted as B)
CC[C@H](C)[C@@H]1NC(=O)[C@H](CC2CC2)N(C)C(=O)C[C@@H](C(=O)N(C)C)N(C)C(=O)[C@H](C2CCCC2)N(C)C(=O)C2(CCC2)N(C)C(=O)[C@@H]2CCCN2C(=O)[C@H](CCc2cc(F)c(C(F)(F)F)c(F)c2)NC(=O)CN(C)C(=O)[C@H](Cc2ccc(C)cc2)N2CC/C=C\C[C@@H](C2=O)N(C)C(=O)CN(C)C1=O [PP1796] | A (a compound having 10 or more and less than 20 is denoted as A) | B (a compound having 3 or more and less than 10 is denoted as B)
CCO[C@@H]1C[C@H]2C(=O)N(C)C3(CCC3)C(=O)N(C)[C@@H](C3CCCC3)C(=O)N(C)[C@H](C(=O)N(C)C)CC(=O)N(C)[C@@H](CC3CC3)C(=O)N[C@@H]([C@@H](C)CC)C(=O)N3CCC[C@H]3C(=O)N(C)[C@H]3C/C=C\CCN(C3=O)[C@@H](Cc3ccc(C)cc3)C(=O)N(C)CC(=O)N[C@@H](CCc3cc(F)c(C(F)(F)F)c(F)c3)C(=O)N2C1 [PP1797] | A (a compound having 10 or more and less than 20 is denoted as A) | A (a compound having 10 or more and less than 20 is denoted as A)
CC[C@H](C)[C@@H]1NC(=O)[C@H](CC2CC2)N(C)C(=O)C[C@@H](C(=O)N(C)C)N(C)C(=O)[C@H](C2CCCC2)N(C)C(=O)C2(CCC2)N(C)C(=O)[C@@H]2CCCN2C(=O)[C@H](CCc2cc(F)c(C(F)(F)F)c(F)c2)NC(=O)CN(C)C(=O)[C@H](Cc2ccc(C)cc2)N2CC/C=C\C[C@@H](C2=O)N(C)C(=O)[C@@H]2CCCN2C1=O [PP1798] | A (a compound having 10 or more and less than 20 is denoted as A) | B (a compound having 3 or more and less than 10 is denoted as B)
CCC[C@H]1C(=O)N[C@@H]([C@@H](C)CC)C(=O)N(C)CC(=O)N(C)[C@H]2C/C=C\CCN(C2=O)[C@@H](Cc2ccc(C)cc2)C(=O)N(C)CC(=O)N[C@@H](CCc2cc(F)c(C(F)(F)F)c(F)c2)C(=O)N2C[C@H](C)C[C@H]2C(=O)N(C)C2(CCC2)C(=O)N(C)[C@@H](C2CCCC2)C(=O)N(C)[C@H](C(=O)N(C)C)CC(=O)N1C [PP1799] | B (a compound having 3 or more and less than 10 is denoted as B) | B (a compound having 3 or more and less than 10 is denoted as B)
CC[C@H](C)[C@@H]1NC(=O)[C@H](CC2CC2)N(C)C(=O)C[C@@H](C(=O)N(C)C)N(C)C(=O)[C@H](C2CCCC2)N(C)C(=O)C2(CCC2)N(C)C(=O)[C@@H]2C[C@@H](C)CN2C(=O)[C@H](CCc2cc(F)c(C(F)(F)F)c(F)c2)NC(=O)CN(C)C(=O)[C@H](Cc2ccc(C)cc2)N2CC/C=C\C[C@@H](C2=O)N(C)C(=O)CN(C)C1=O [PP1800] | A (a compound having 10 or more and less than 20 is denoted as A) | A (a compound having 10 or more and less than 20 is denoted as A)
CC[C@H](C)[C@@H]1NC(=O)[C@H](CC2CC2)N(C)C(=O)C[C@@H](C(=O)N(C)C)N(C)C(=O)[C@H](C2CCCC2)N(C)C(=O)C2(CCC2)N(C)C(=O)[C@@H]2C[C@@H](C)CN2C(=O)[C@H](CCc2cc(F)c(C(F)(F)F)c(F)c2)NC(=O)CN(C)C(=O)[C@H](Cc2ccc(C)cc2)N2CC/C=C\C[C@@H](C2=O)N(C)C(=O)[C@@H]2CCCN2C1=O [PP1801] | A (a compound having 10 or more and less than 20 is denoted as A) | B (a compound having 3 or more and less than 10 is denoted as B)
CC[C@H](C)[C@@H]1NC(=O)[C@H](CC2CCC2)N(C)C(=O)C[C@@H](C(=O)N(C)C)N(C)C(=O)[C@H](C2CCCC2)N(C)C(=O)C2(CCC2)N(C)C(=O)[C@@H]2CCCN2C(=O)[C@H](CCc2cc(F)c(C(F)(F)F)c(F)c2)NC(=O)CN(C)C(=O)[C@H](Cc2ccc(C)cc2)N2CC/C=C\C[C@@H](C2=O)N(C)C(=O)CN(C)C1=O [PP1802] | A (a compound having 10 or more and less than 20 is denoted as A) | B (a compound having 3 or more and less than 10 is denoted as B)
